According to PubChem BioAssay (NCI):
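48-hour exposure; five concentrations; linearly interpolated endpoints. GI50 is the concentration that inhibits growth by half. TGI: concentration producing complete growth inhibition.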

Legend:
Assay in all cases: inhibition of tumour cell growth, NCI panel, 48 h
786-0 renal = system: 786-0 renal
A549 NSCLC = system: A549 NSCLC
ACHN renal = system: ACHN renal
CAKI-1 renal = system: CAKI-1 renal
CCRF-CEM leukemia = system: CCRF-CEM leukemia
COLO 205 colon = system: COLO 205 colon
DU-145 prostate = system: DU-145 prostate
EKVX NSCLC = system: EKVX NSCLC
HCC-2998 colon = system: HCC-2998 colon
HCT-116 colon = system: HCT-116 colon
HCT-15 colon = system: HCT-15 colon
HOP-62 NSCLC = system: HOP-62 NSCLC
HOP-92 NSCLC = system: HOP-92 NSCLC
HS 578T breast = system: HS 578T breast
HT29 colon = system: HT29 colon
K-562 leukemia = system: K-562 leukemia
KM12 colon = system: KM12 colon
LOX IMVI melanoma = system: LOX IMVI melanoma
M14 melanoma = system: M14 melanoma
MALME-3M melanoma = system: MALME-3M melanoma
MCF7 breast = system: MCF7 breast
MDA-MB-231 breast = system: MDA-MB-231 breast
MDA-MB-435 = system: MDA-MB-435
NCI-H226 lung = system: NCI-H226 lung
NCI-H23 lung = system: NCI-H23 lung
NCI-H460 lung = system: NCI-H460 lung
NCI-H522 lung = system: NCI-H522 lung
NCI/ADR-RES ovarian = system: NCI/ADR-RES ovarian
OVCAR-3 ovarian = system: OVCAR-3 ovarian
OVCAR-4 ovarian = system: OVCAR-4 ovarian
OVCAR-5 ovarian = system: OVCAR-5 ovarian
OVCAR-8 ovarian = system: OVCAR-8 ovarian
PC-3 prostate = system: PC-3 prostate
RPMI-8226 leukemia = system: RPMI-8226 leukemia
SF-268 CNS = system: SF-268 CNS
SF-295 CNS = system: SF-295 CNS
SK-MEL-28 melanoma = system: SK-MEL-28 melanoma
SK-MEL-5 melanoma = system: SK-MEL-5 melanoma
SK-OV-3 ovarian = system: SK-OV-3 ovarian
SN12C renal = system: SN12C renal
SNB-19 CNS = system: SNB-19 CNS
SR leukemia = system: SR leukemia
SW-620 colon = system: SW-620 colon
T-47D breast = system: T-47D breast
TK-10 renal = system: TK-10 renal
U251 CNS = system: U251 CNS
UACC-62 melanoma = system: UACC-62 melanoma
UO-31 renal = system: UO-31 renal

## Cc1cc(N(CCOS(C)(=O)=O)CCOS(C)(=O)=O)ccc1C(=O)O
786-0 renal
  GI50: > 100 µM
  TGI: > 100 µM
A549 NSCLC
  GI50: > 100 µM
  TGI: > 100 µM
ACHN renal
  GI50: 50 µM
  TGI: > 100 µM
CAKI-1 renal
  GI50: 43.7 µM
  TGI: > 100 µM
CCRF-CEM leukemia
  GI50: 67.4 µM
  TGI: > 100 µM
COLO 205 colon
  GI50: > 100 µM
  TGI: > 100 µM
DU-145 prostate
  GI50: > 100 µM
  TGI: > 100 µM
EKVX NSCLC
  GI50: > 100 µM
  TGI: > 100 µM
HCC-2998 colon
  GI50: > 100 µM
  TGI: > 100 µM
HCT-116 colon
  GI50: > 100 µM
  TGI: > 100 µM
HCT-15 colon
  GI50: > 100 µM
  TGI: > 100 µM
HOP-62 NSCLC
  GI50: > 100 µM
  TGI: > 100 µM
HOP-92 NSCLC
  GI50: 37.1 µM
  TGI: > 100 µM
HS 578T breast
  GI50: > 100 µM
  TGI: > 100 µM
HT29 colon
  GI50: > 100 µM
  TGI: > 100 µM
K-562 leukemia
  GI50: > 100 µM
  TGI: > 100 µM
KM12 colon
  GI50: > 100 µM
  TGI: > 100 µM
LOX IMVI melanoma
  GI50: 73.5 µM
  TGI: > 100 µM
M14 melanoma
  GI50: > 100 µM
  TGI: > 100 µM
MALME-3M melanoma
  GI50: > 100 µM
  TGI: > 100 µM
MCF7 breast
  GI50: 87.4 µM
  TGI: > 100 µM
MDA-MB-231 breast
  GI50: > 100 µM
  TGI: > 100 µM
MDA-MB-435
  GI50: > 100 µM
  TGI: > 100 µM
NCI-H226 lung
  GI50: > 100 µM
  TGI: > 100 µM
NCI-H23 lung
  GI50: 98.2 µM
  TGI: > 100 µM
NCI-H460 lung
  GI50: 87.6 µM
  TGI: > 100 µM
NCI-H522 lung
  GI50: 10.7 µM
  TGI: > 100 µM
NCI/ADR-RES ovarian
  GI50: > 100 µM
  TGI: > 100 µM
OVCAR-3 ovarian
  GI50: > 100 µM
  TGI: > 100 µM
OVCAR-4 ovarian
  GI50: > 100 µM
  TGI: > 100 µM
OVCAR-5 ovarian
  GI50: > 100 µM
  TGI: > 100 µM
OVCAR-8 ovarian
  GI50: > 100 µM
  TGI: > 100 µM
PC-3 prostate
  GI50: > 100 µM
  TGI: > 100 µM
RPMI-8226 leukemia
  GI50: > 100 µM
  TGI: > 100 µM
SF-268 CNS
  GI50: > 100 µM
  TGI: > 100 µM
SF-295 CNS
  GI50: > 100 µM
  TGI: > 100 µM
SK-MEL-28 melanoma
  GI50: > 100 µM
  TGI: > 100 µM
SK-MEL-5 melanoma
  GI50: > 100 µM
  TGI: > 100 µM
SK-OV-3 ovarian
  GI50: > 100 µM
  TGI: > 100 µM
SN12C renal
  GI50: > 100 µM
  TGI: > 100 µM
SNB-19 CNS
  GI50: > 100 µM
  TGI: > 100 µM
SR leukemia
  GI50: 40.7 µM
  TGI: > 100 µM
SW-620 colon
  GI50: > 100 µM
  TGI: > 100 µM
T-47D breast
  GI50: > 100 µM
  TGI: > 100 µM
TK-10 renal
  GI50: > 100 µM
  TGI: > 100 µM
U251 CNS
  GI50: > 100 µM
  TGI: > 100 µM
UACC-62 melanoma
  GI50: > 100 µM
  TGI: > 100 µM
UO-31 renal
  GI50: > 100 µM
  TGI: > 100 µM
